Data on two compounds can be found in article PMC8795149, “Characterization of a novel non-steroidal glucocorticoid receptor agonist optimized for topical treatment” (Scientific Reports, 2022).

A word on the EC50: it is the midpoint of the concentration-response curve.

Values joined by “and” are separate entries in the source; they are usually repeats but may differ in a detail not shown here. Identical values can stand only once.

Data set [1] in a line: Hepatocyte stability (dog). The class given is in vitro ADME. Particulars: predicted hepatic clearance, well stirred model. The protocol:
(§1) Compounds (1.0 µM) were incubated in duplicates with rat, dog, minipig or human hepatocytes (1.0 million cells/mL) in phosphate buffer, in 96-well plates for 120 min (37 °C). Reactions were stopped by addition of cold acetonitrile, at 0, 10, 30, 60, and 120 min, and dispensed into cold acetonitrile to stop the reactions. Plates were centrifuged for 30 min and samples were analysed using liquid chromatography coupled to a time-of-flight mass spectrometer. Compound depletion over time was used to estimate the elimination rate constant, from which the apparent intrinsic clearance (CLapp), and half-life (t½), were calculated.

The nature of data set [2]: Hepatocyte stability (minipig). The class given is in vitro ADME. As to conditions: predicted hepatic clearance, well stirred model. The protocol: as §1
The nature of data set [3]: Stability in whole blood (human). Particulars: 0.1 µM, 37 °C. The class given is in vitro ADME. The protocol:
Anonymized human blood samples were obtained from healthy volunteer donors upon informed written consent and in accordance with national legislation.
(§2) Compounds were incubated in diluted fresh rat, dog, minipig or human whole blood (heparin stabilized, 50% blood and 50% phosphate buffer with 1% bovine serum albumin) for 120 min at 0.1 µM, at 37 °C and the half-lives were determined. Samples were taken at 0, 15, 30, 60 and 120 min, and reactions were terminated by addition of acetonitrile containing analytical internal standard (IS). Test compound depletion was determined using time-of-flight mass spectrometry in positive ion mode (TOF–MS; AB Sciex API5600). Elimination rate constants (k) were calculated from peak areas and the half-lives was determined (t½ = ln2/k).

The nature of data set [4]: Hepatocyte stability (rat). The class given is in vitro ADME. As to conditions: predicted hepatic clearance, well stirred model. As for the experimental part:
as §1

The nature of data set [5]: Stability in whole blood (minipig). The class given is in vitro ADME. As to conditions: 0.1 µM, 37 °C. As for the experimental part: as §2
Data set [6] can be described thus: Stability in whole blood (dog). The class given is in vitro ADME. Particulars: 0.1 µM, 37 °C. The protocol:
as §2

Data set [7] relates to PPAR-alpha, LXR-beta, RAR-alpha, RXR-alpha, ER-alpha, PR, AR, ER-beta and TR. The data set is described as follows: Selectivity screening on nuclear receptors, radioligand binding (CEREP). As to conditions: 10µM; greater than 25% displacement considered significant. Also on record: species or system human. The protocol:
Selectivity screening on nuclear receptors – Studies were performed at CEREP using their proprietary assays for human PPARalpha, LXRbeta, RARalpha, RXRalpha, ERalpha, ERbeta, progesterone receptor, androgen receptor and thyroid hormone receptor employing specific, radiolabeled agonist ligands. Interactions leading to greater than 25% displacement of the radiolabeled agonist ligand were considered significant. Concentrations of LEO 134310 and LEO 134998 were 10µM.

Data set [8] can be described thus: Stability in whole blood (rat). The class given is in vitro ADME. Particulars: 0.1 µM, 37 °C. The protocol:
as §2

A short description of data set [9]: In vivo pharmacokinetics in rat, i.v. As for the experimental part:
The pharmacokinetic profile of LEO 134310 was determined in rat (male Sprague Dawley) and dog (female Beagle) after intravenous (i.v.) injection at 1 mg/kg. LEO 134310 was administered in isotonic cyclodextrin solution at 0.5 mg/mL (0.1% Citrate buffer pH 4, 20% hydroxy-propyl-β-cyclodextrin in 0.2% NaCl). The i.v. dose was given as a bolus in rats and as a slow injection over 2 min in dogs. The dosing volume was 2 mL/kg. Blood was immediately diluted after sampling in an inhibitory cocktail containing acetylcholinesterase inhibitor Dichlorvos [1 mg/mL in an 8 mg/mL K2EDTA solution in phosphate buffer (PBS)] and samples were stored at − 80 °C until analysis. Samples were analyzed by LC–MS/MS using an API 5500/API 6500 QTRAP mass spectrometer. Pharmacokinetic parameters were derived from a non-compartment model in Phoenix64 (Pharsight, Certara).

A short description of data set [10]: Predicted clearance and half-life in man by allometric scaling of clearance in dogs. Also on record: species or system human. The text has this: To evaluate allometric scaling, actual clearance in dog and man were extracted from the literature for 6 ester drugs[27]–[38].
Data set [11] deals with T1, recombinant human full-length GR (Homo sapiens, UniProt P04150).
T1 construct: 4 nM recombinant human full-length GR (Thermo Fisher); purchased Thermo Fisher
T1 sequence (P04150 1-777): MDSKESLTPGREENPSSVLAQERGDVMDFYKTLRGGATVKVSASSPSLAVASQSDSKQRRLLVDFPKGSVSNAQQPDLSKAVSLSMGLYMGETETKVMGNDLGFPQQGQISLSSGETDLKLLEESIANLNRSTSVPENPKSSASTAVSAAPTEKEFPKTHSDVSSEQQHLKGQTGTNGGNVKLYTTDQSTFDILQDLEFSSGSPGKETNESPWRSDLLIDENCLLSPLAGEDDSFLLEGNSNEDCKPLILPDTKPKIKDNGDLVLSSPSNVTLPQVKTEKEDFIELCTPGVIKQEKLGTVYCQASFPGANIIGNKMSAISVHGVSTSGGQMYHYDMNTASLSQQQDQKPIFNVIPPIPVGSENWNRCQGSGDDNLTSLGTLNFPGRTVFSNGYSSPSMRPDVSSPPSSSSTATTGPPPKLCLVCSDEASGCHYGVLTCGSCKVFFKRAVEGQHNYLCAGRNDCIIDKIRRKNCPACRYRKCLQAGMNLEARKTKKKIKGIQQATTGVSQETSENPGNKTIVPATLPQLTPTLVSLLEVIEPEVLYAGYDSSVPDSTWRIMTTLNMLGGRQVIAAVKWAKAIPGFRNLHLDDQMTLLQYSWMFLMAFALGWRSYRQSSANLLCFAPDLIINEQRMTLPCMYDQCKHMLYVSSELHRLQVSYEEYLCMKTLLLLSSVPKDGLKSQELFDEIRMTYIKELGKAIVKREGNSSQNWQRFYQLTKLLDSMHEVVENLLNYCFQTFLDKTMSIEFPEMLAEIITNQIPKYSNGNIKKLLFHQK
The data set is described as follows: GR binding assay (fluorescence polarization). As to conditions: Fluormone GS1. The protocol: Binding of GR agonists to human GR was evaluated in a fluorescence polarization assay. 2.5 nM Fluormone GS1 (Thermo Fisher) and 4 nM recombinant human full-length GR (Thermo Fisher) were incubated in the presence of individual test and control compounds. Changes in polarization values were used to determine the relative affinity of test compounds for the GR.
Background: In fluorescence polarisation assays a small probe gives low polarisation when free and higher when bound to something large.

Data set [12] can be described thus: Hepatocyte stability (human). The class given is in vitro ADME. As to conditions: predicted hepatic clearance, well stirred model. As for the experimental part: as §1
Data set [13] relates to TPA-induced skin inflammation. The experiment in a line: TPA study in mice, CP applied on the non-inflamed ear. The class given is in vivo, mouse. As to conditions: CP applied topically on the non-inflamed ear, tested dose range 0.03–3 µg/ear. The protocol: Figure S6. Effect of topically applied CP on TPA induced ear biopsy weight in mice (upper panel). Treatment scheme can be seen in the lower panel. Ear oedema was induced by TPA on the left ear on day 1, 3, 5, 8 and 10 and CP was topically administered daily on either left or right ear on day 8 to 11. The left ear biopsy weight was measured on day 11. Significant effect was seen also when CP was administered on the right ear at the 2 highest doses, indicating contribution to the local effect, by systemic exposure

For the next data set, the system named is HPA axis. Also on record: method as in PMID 3553247. Particulars: topical; cited from earlier work.

Consider `C[C@H](NC(=O)[C@H]1CCCO1)[C@H](Oc1ccc(C(=O)O[C@H]2CCCN(C(=O)[C@H]3COC(=O)C3)C2)cc1)c1ccc(C2CC2)cc1` [LEO 134310], for which the “In vitro (hepatocytes) CLH” value in data set [1] was > 30 (n = 1) mL/min/kg; in data set [2], > 35 (n = 1) mL/min/kg; in data set [4] it was 57 (n = 1) mL/min/kg; in data set [12], > 18 (n = 1) mL/min/kg. The “In vitro (blood) half-life” value was 6 min and 4.4 ± 2.2 (n = 4) min in data set [3]; 3.8 (n = 1) min in [5]; 3.3 ± 2.1 (n = 5) min in [6]; 2.2 (2.1, 2.2) (n = 2) min in [8]. For the same compound, the “Interaction with nine nuclear hormone receptors in specific binding assays” value in data set [7] was “no significant interaction”. Besides, in data set [9], the “In vivo clearance relative to liver blood flow” value was determined as 5 fold. In data set [9] (i.v. 1 mg/kg), the In vivo clearance is given as 360 ± 85 (n = 3) mL/min/kg. In addition, the “In vivo terminal half-life” value in [9] (i.v. 1 mg/kg) is given as 190 ± 171 (n = 3) min. The “Predicted clearance in man” value in data set [10] (allometric scaling of clearance in dogs, scaling factor 0.75) was 300 mL/min/kg. Further, the “Predicted half-life in man” value in [10] (corresponding to predicted clearance) is on record as under 5 min. For the same compound, in data set [11], the EC50 worked out at 0.014 µM.
On to `CCC(=O)O[C@]1(C(=O)CCl)[C@@H](C)C[C@H]2[C@@H]3CCC4=CC(=O)C=C[C@]4(C)[C@@]3(F)[C@@H](O)C[C@@]21C` [CP, Clobetasol Propionate], for which the “Dose from which significant anti-inflammatory effect due to systemic exposure was seen” value in data set [13] was at least 1 µg/ear. For the same compound, the “Effect on morning plasma cortisol” value with HPA axis is “reduce morning plasma cortisol significantly”.
